Reference: patent publication US20180161292A1, “NUTRITIONAL COMPOSITIONS CONTAINING BUTYRATE AND USES THEREOF” (Mead Johnson Nutrition Company, priority 2016, published 2018)

Tested on: oligodendrocyte precursor cells (OPCs)
Test: OPC differentiation into mature oligodendric cells (MBP / PDGFRa immunostaining)
Format: cell-based, rat
Description: The OPCs were purified from P7 rat brain cortices. Rodent brain cortices were diced and dissociated with papain at 37° C. After trituration, […] were resuspended in a panning buffer and incubated at room temperature sequentially on the three immunopanning dishes: Ran-2 and GaIC were used for negative selection before positive selection with 04. OPCs were released from the panning dish using 0.05% Trypsin. OPCs were seeded onto PPL-coated coverslips at 200,000 per 25 mm circle coverslip in a chemically defined culture medium with PDGFa overnight.
Sodium Butyrate (NaB) was dissolved in sterile water and added into culture medium the next day to reach desire concentration. OPC coverslips were placed into 6-well dishes, 1 ml of NaB-containing culture medium without PDGFa was added to each well. Cells were cultured for 48 hours before fixation and immunostaining. PDGFRa antibody identifies OPCs and MBP (myelin basic protein) antibody labels differentiated oligodendrocytes. Percentage of MBP-positive cells out of all PDGFRa- and MBP-positives cells were quantified.
Examining a dose response for sodium butyrate on purified oligodendroglial cultures. Sodium butyrate was added to purified oligodendroglial cultures and cells were analyzed after 48 hours of treatment for effects on survival, proliferation and differentiation. Oligodendrocyte precursor cells were immunostained with PDGFRa shown in green, oligodendrocytes were immunostained with MBP in red, cell nuclei were labeled with DAPI in blue. Percentage of MBP-positive oligodendrocytes among all oligodendroglial cells was quantified at various concentrations of sodium butyrate. The asterisks represent significance based on Students t-test with the respective controls (*p<0.05, **p<0.01)

CCCC(=O)[O-].[Na+] [sodium butyrate]
number of oligodendric cells from OPC compared to the control (MBP immunohistochemistry) (250 μM sodium butyrate, FIG. 7): statistically significant increase | fold increase in the numbers of differentiated and matured oligodendric cells as compared to the control (250 μM sodium butyrate, purified OPCs from P7 rat brain cortices, 48 hours, FIG. 1): 2.6 fold | effect to promote OPC to differentiate into mature oligodendric cells (dose response 50 nM to 250 μM, 48 hours, FIG. 1): dose-dependent manner | increase in Oligo cells as compared to the control (each of the concentrations of sodium butyrate (50 nM, 500 nM, 5 μM, 50 μM, 250 μM), 48 hours, Student's t-test, FIG. 1): statistically significant increase
